# Laboratory results published in publication PMC5218480 (PLoS ONE, 2017).
# Test system: MV-4-11 cells
# Assay: Gene expression microarray analysis (Affymetrix PrimeView) and GSEA
# Type: cell-based, human
# Set-up: RFU PODN (11730768_x_at) / Fold change /veh PODN (11730768_x_at) / RFU LINC00158 (11744669_a_at) / Fold change /veh LINC00158 (11744669_a_at) / RFU DUSP10 (11751237_a_at) / Fold change /veh DUSP10 (11751237_a_at) / RFU ID3 (11757404_x_at) / Fold change /veh ID3 (11757404_x_at) / RFU PLEKHG5 (11737974_s_at) / Fold change /veh PLEKHG5 (11737974_s_at) / RFU LRRC4B (11730491_at) / Fold change /veh LRRC4B (11730491_at) / RFU GIMAP4 (11747438_a_at) / Fold change /veh GIMAP4 (11747438_a_at) / RFU KRT8 (11758183_x_at) / Fold change /veh KRT8 (11758183_x_at) / RFU CNN1 (11734310_a_at) / Fold change /veh CNN1 (11734310_a_at) / RFU VPS37D (11726825_at) / Fold change /veh VPS37D (11726825_at) / RFU C10orf10 (11716522_x_at) / Fold change /veh C10orf10 (11716522_x_at) / RFU KIR2DL2 /// KIR2DL4 /// KIR2DL5A /// KIR2DL5B /// KIR2DS1 /// KIR2DS2 /// KIR2DS3 /// KIR2DS4 /// KIR3DL3 /// KIR3DL3 /// KIR3DS1 (11738374_at) / Fold change /veh KIR2DL2 /// KIR2DL4 /// KIR2DL5A /// KIR2DL5B /// KIR2DS1 /// KIR2DS2 /// KIR2DS3 /// KIR2DS4 /// KIR3DL3 /// KIR3DL3 /// KIR3DS1 (11738374_at) / RFU C1QL1 (11718748_at) / Fold change /veh C1QL1 (11718748_at) / RFU TMPRSS4 (11747572_a_at) / Fold change /veh TMPRSS4 (11747572_a_at) / RFU HAMP (11756126_x_at) / Fold change /veh HAMP (11756126_x_at) / RFU RNFT2 (11725882_a_at) / Fold change /veh RNFT2 (11725882_a_at) / RFU NR4A2 (11747474_a_at) / Fold change /veh NR4A2 (11747474_a_at) / RFU ABCC12 (11746883_a_at) / Fold change /veh ABCC12 (11746883_a_at) / RFU TMEM136 (11760407_x_at) / Fold change /veh TMEM136 (11760407_x_at) / RFU CLDN22 /// WWC2 (11732394_at) / Fold change /veh CLDN22 /// WWC2 (11732394_at) / RFU HLA-DPB1 (11760878_x_at) / Fold change /veh HLA-DPB1 (11760878_x_at) / RFU SPINT1 (11716480_a_at) / Fold change /veh SPINT1 (11716480_a_at) / RFU GAP43 (11754022_s_at) / Fold change /veh GAP43 (11754022_s_at) / RFU A4GNT (11735810_at) / Fold change /veh A4GNT (11735810_at) / RFU PRB3 (11715151_x_at) / Fold change /veh PRB3 (11715151_x_at) / RFU TUBB4B (11761932_at) / Fold change /veh TUBB4B (11761932_at) / RFU CAPN14 (11732068_a_at) / Fold change /veh CAPN14 (11732068_a_at) / RFU TMCC2 (11721928_a_at) / Fold change /veh TMCC2 (11721928_a_at) / RFU IRGQ (11745062_a_at) / Fold change /veh IRGQ (11745062_a_at) / RFU FAM174B (11720279_a_at) / Fold change /veh FAM174B (11720279_a_at) / RFU TMPRSS4 (11748680_a_at) / Fold change /veh TMPRSS4 (11748680_a_at) / RFU FAM212B (11763350_a_at) / Fold change /veh FAM212B (11763350_a_at) / RFU PLEKHG5 (11743358_a_at) / Fold change /veh PLEKHG5 (11743358_a_at) / RFU ZSCAN30 (11745921_a_at) / Fold change /veh ZSCAN30 (11745921_a_at) / RFU CMKLR1 (11741424_a_at) / Fold change /veh CMKLR1 (11741424_a_at) / RFU LOC101060620 /// MAPK8IP1 (11723275_at) / Fold change /veh LOC101060620 /// MAPK8IP1 (11723275_at) / RFU SPTSSB (11747773_x_at) / Fold change /veh SPTSSB (11747773_x_at) / RFU PRSS12 (11739890_at) / Fold change /veh PRSS12 (11739890_at) / RFU BIN1 (11741810_x_at) / Fold change /veh BIN1 (11741810_x_at) / RFU WNT11 (11732464_a_at) / Fold change /veh WNT11 (11732464_a_at) / RFU C10orf10 (11716521_a_at) / Fold change /veh C10orf10 (11716521_a_at) / RFU C5orf56 (11738089_at) / Fold change /veh C5orf56 (11738089_at) / RFU CYB561 (11721691_x_at) / Fold change /veh CYB561 (11721691_x_at) / RFU ANKRD19P (11752326_a_at) / Fold change /veh ANKRD19P (11752326_a_at) / RFU OR2T12 /// OR2T33 /// OR2T8 (11738714_s_at) / Fold change /veh OR2T12 /// OR2T33 /// OR2T8 (11738714_s_at) / RFU VCAN (11748164_a_at) / Fold change /veh VCAN (11748164_a_at) / RFU JSRP1 (11732532_at) / Fold change /veh JSRP1 (11732532_at) / RFU KRTAP10-11 (11738290_x_at) / Fold change /veh KRTAP10-11 (11738290_x_at) / RFU MYO3A (11730013_a_at) / Fold change /veh MYO3A (11730013_a_at) / RFU EBF3 (11725865_a_at) / Fold change /veh EBF3 (11725865_a_at) / RFU CAMK2N1 (11719241_x_at) / Fold change /veh CAMK2N1 (11719241_x_at) / RFU C5orf56 (11738088_a_at) / Fold change /veh C5orf56 (11738088_a_at) / RFU OLFML3 (11715873_a_at) / Fold change /veh OLFML3 (11715873_a_at) / RFU LOC100653217 /// NTM (11731650_a_at) / Fold change /veh LOC100653217 /// NTM (11731650_a_at) / RFU MAPK11 (11762145_a_at) / Fold change /veh MAPK11 (11762145_a_at) / RFU FIZ1 (11724087_x_at) / Fold change /veh FIZ1 (11724087_x_at) / RFU OASL (11726364_x_at) / Fold change /veh OASL (11726364_x_at) / RFU SOX15 (11748057_x_at) / Fold change /veh SOX15 (11748057_x_at) / RFU CD79A (11719716_a_at) / Fold change /veh CD79A (11719716_a_at) / RFU HIST1H1D (11736915_at) / Fold change /veh HIST1H1D (11736915_at) / RFU CASKIN2 (11723855_a_at) / Fold change /veh CASKIN2 (11723855_a_at) / RFU LOC730098 (11760151_x_at) / Fold change /veh LOC730098 (11760151_x_at) / RFU OR4N2 (11742367_at) / Fold change /veh OR4N2 (11742367_at) / RFU PRRT2 (11749266_a_at) / Fold change /veh PRRT2 (11749266_a_at) / RFU SNX32 (11753110_a_at) / Fold change /veh SNX32 (11753110_a_at) / RFU CDHR5 (11726645_a_at) / Fold change /veh CDHR5 (11726645_a_at) / RFU RCAN1 (11760418_a_at) / Fold change /veh RCAN1 (11760418_a_at) / RFU FAM167A (11723789_a_at) / Fold change /veh FAM167A (11723789_a_at) / RFU FAM26E (11764081_at) / Fold change /veh FAM26E (11764081_at) / RFU ISYNA1 (11749810_s_at) / Fold change /veh ISYNA1 (11749810_s_at) / RFU ACY1 (11761880_at) / Fold change /veh ACY1 (11761880_at) / RFU 11764098_at / Fold change /veh 11764098_at / RFU SAMD14 (11745864_x_at) / Fold change /veh SAMD14 (11745864_x_at) / RFU NPB (11741838_a_at) / Fold change /veh NPB (11741838_a_at) / RFU TMPRSS6 (11731388_a_at) / Fold change /veh TMPRSS6 (11731388_a_at) / RFU KRTAP10-2 (11738614_at) / Fold change /veh KRTAP10-2 (11738614_at) / RFU ARHGAP8 /// PRR5-ARHGAP8 (11727945_x_at) / Fold change /veh ARHGAP8 /// PRR5-ARHGAP8 (11727945_x_at) / RFU KRTAP5-7 /// NADSYN1 (11734609_at) / Fold change /veh KRTAP5-7 /// NADSYN1 (11734609_at) / RFU RASL12 (11751679_a_at) / Fold change /veh RASL12 (11751679_a_at) / RFU CDKN2B (11736163_a_at) / Fold change /veh CDKN2B (11736163_a_at) / RFU PRF1 (11729649_at) / Fold change /veh PRF1 (11729649_at) / RFU, ZNF638 /// ZNF638-IT1 / Fold change vs veh, ZNF638 /// ZNF638-IT1 / RFU, PANK3 / Fold change vs veh, PANK3 / RFU, SH3YL1 / Fold change vs veh, SH3YL1 / RFU, ZEB2 / Fold change vs veh, ZEB2 / RFU, NRIP1 / Fold change vs veh, NRIP1 / RFU, PTTG1IP / Fold change vs veh, PTTG1IP / RFU, CAPN2 / Fold change vs veh, CAPN2 / RFU, MED14 / Fold change vs veh, MED14 / RFU, SNORA58 / Fold change vs veh, SNORA58 / RFU, C1orf63 / Fold change vs veh, C1orf63 / RFU, LRRFIP1 / Fold change vs veh, LRRFIP1 / RFU, NDUFAF7 / Fold change vs veh, NDUFAF7 / RFU, SLC12A2 / Fold change vs veh, SLC12A2 / RFU, IBTK / Fold change vs veh, IBTK / RFU, ESF1 / Fold change vs veh, ESF1 / Fold change vs veh, TMEM50B / RFU, TAOK1 / Fold change vs veh, TAOK1 / RFU, ACBD3 / Fold change vs veh, ACBD3 / RFU, TMA16 / Fold change vs veh, TMA16 / RFU, RWDD3 / Fold change vs veh, RWDD3 / RFU, BCAT1 / Fold change vs veh, BCAT1 / RFU, EDEM3 / Fold change vs veh, EDEM3 / RFU, TMEM33 / Fold change vs veh, TMEM33 / RFU, WDR75 / Fold change vs veh, WDR75 / RFU, AHCTF1 / Fold change vs veh, AHCTF1 / RFU, TFRC / Fold change vs veh, TFRC / RFU, ZDHHC17 / Fold change vs veh, ZDHHC17 / RFU, NOM1 / Fold change vs veh, NOM1 / RFU, ARL8B / Fold change vs veh, ARL8B / RFU, ZBTB11 / Fold change vs veh, ZBTB11 / RFU, TAMM41 / Fold change vs veh, TAMM41 / RFU, KIAA1704 /// LOC100996395 / Fold change vs veh, KIAA1704 /// LOC100996395 / RFU, ING1 / Fold change vs veh, ING1 / RFU, TRMT61B / Fold change vs veh, TRMT61B / RFU, FUBP3 / Fold change vs veh, FUBP3 / RFU, TP53 / Fold change vs veh, TP53 / RFU, TNKS2 / Fold change vs veh, TNKS2 / RFU, ZFP14 / Fold change vs veh, ZFP14 / RFU, ACTR2 / Fold change vs veh, ACTR2 / RFU, PPP3R1 / Fold change vs veh, PPP3R1 / RFU, PIK3R1 / Fold change vs veh, PIK3R1 / RFU, HNRNPA1 / Fold change vs veh, HNRNPA1 / RFU, RNF170 / Fold change vs veh, RNF170 / RFU, ZNF28 / Fold change vs veh, ZNF28 / RFU, RNGTT / Fold change vs veh, RNGTT / RFU, OGT / Fold change vs veh, OGT / RFU, BRD1 / Fold change vs veh, BRD1 / RFU, MARS / Fold change vs veh, MARS / RFU, ZNF655 / Fold change vs veh, ZNF655 / RFU, FAHD1 / Fold change vs veh, FAHD1 / RFU, BDP1 / Fold change vs veh, BDP1 / RFU, LRRCC1 / Fold change vs veh, LRRCC1 / RFU, ARID1A / Fold change vs veh, ARID1A / RFU, ZNF146 / Fold change vs veh, ZNF146 / RFU, ZNF330 / Fold change vs veh, ZNF330 / RFU, GPN3 / Fold change vs veh, GPN3 / RFU, C9orf123 / Fold change vs veh, C9orf123 / RFU, N4BP2L2 / Fold change vs veh, N4BP2L2 / RFU, ARFIP1 / Fold change vs veh, ARFIP1 / RFU, FAM179B / Fold change vs veh, FAM179B / RFU, BCL10 / Fold change vs veh, BCL10 / RFU, UHRF1BP1L / Fold change vs veh, UHRF1BP1L / RFU, BET1 / Fold change vs veh, BET1 / RFU, CNOT2 / Fold change vs veh, CNOT2 / RFU, ZNF268 / Fold change vs veh, ZNF268 / Fold change vs veh, ZNF507 / RFU, DGCR2 / Fold change vs veh, DGCR2 / RFU, WDSUB1 / Fold change vs veh, WDSUB1 / Fold change vs veh, HSP90B1 /// MIR3652 / RFU, ADSS / Fold change vs veh, ADSS / RFU, GK / Fold change vs veh, GK / RFU, ZNF148 / Fold change vs veh, ZNF148 / RFU, TAF9 / Fold change vs veh, TAF9 / RFU, SLC1A5 / Fold change vs veh, SLC1A5 / RFU, SLMO2 / Fold change vs veh, SLMO2 / RFU, ABCC4 / Fold change vs veh, ABCC4 / RFU, LOC101060439 /// RAP1B / Fold change vs veh, LOC101060439 /// RAP1B / RFU, RFX7 / Fold change vs veh, RFX7 / RFU, GTPBP10 / Fold change vs veh, GTPBP10 / RFU, CNEP1R1 / Fold change vs veh, CNEP1R1 / RFU, BIVM-ERCC5 /// ERCC5 / Fold change vs veh, BIVM-ERCC5 /// ERCC5 / RFU, ILF3 / Fold change vs veh, ILF3 / RFU 11762660_at / Fold change /veh 11762660_at / RFU VCAN (11757783_s_at) / Fold change /veh VCAN (11757783_s_at) / RFU DDX43 (11728927_at) / Fold change /veh DDX43 (11728927_at) / RFU KRT8 (11758188_x_at) / Fold change /veh KRT8 (11758188_x_at) / RFU NKD1 (11759106_at) / Fold change /veh NKD1 (11759106_at) / RFU SRD5A1 (11742802_a_at) / Fold change /veh SRD5A1 (11742802_a_at) / RFU TPSAB1 /// TPSB2 (11721975_s_at) / Fold change /veh TPSAB1 /// TPSB2 (11721975_s_at) / RFU GSTM3 (11746129_a_at) / Fold change /veh GSTM3 (11746129_a_at) / RFU IL23R (11737362_x_at) / Fold change /veh IL23R (11737362_x_at) / RFU TMEM51 (11727254_a_at) / Fold change /veh TMEM51 (11727254_a_at) / RFU PIWIL2 (11732686_x_at) / Fold change /veh PIWIL2 (11732686_x_at) / RFU ORM1 (11744905_x_at) / Fold change /veh ORM1 (11744905_x_at) / RFU CCDC152 (11743942_at) / Fold change /veh CCDC152 (11743942_at) / RFU ECM1 (11717891_a_at) / Fold change /veh ECM1 (11717891_a_at) / RFU IL23R (11748794_a_at) / Fold change /veh IL23R (11748794_a_at) / RFU TNFAIP8L3 (11732012_x_at) / Fold change /veh TNFAIP8L3 (11732012_x_at) / RFU MBOAT4 (11741988_at) / Fold change /veh MBOAT4 (11741988_at) / RFU 11764193_at / Fold change /veh 11764193_at / RFU TMEM53 (11763286_at) / Fold change /veh TMEM53 (11763286_at) / RFU MAGEB2 (11727129_at) / Fold change /veh MAGEB2 (11727129_at) / RFU TMEM200A (11744735_a_at) / Fold change /veh TMEM200A (11744735_a_at) / RFU CCDC152 (11751479_a_at) / Fold change /veh CCDC152 (11751479_a_at) / RFU FAM211A (11726209_a_at) / Fold change /veh FAM211A (11726209_a_at) / RFU RGS16 (11746705_a_at) / Fold change /veh RGS16 (11746705_a_at) / RFU VCAN (11755009_s_at) / Fold change /veh VCAN (11755009_s_at) / RFU RHOB (11743442_s_at) / Fold change /veh RHOB (11743442_s_at) / RFU RGS16 (11720943_a_at) / Fold change /veh RGS16 (11720943_a_at) / RFU RGS16 (11720944_at) / Fold change /veh RGS16 (11720944_at) / RFU, VPS4B / Fold change vs veh, VPS4B / RFU, CREB1 / Fold change vs veh, CREB1 / RFU, DNAJC13 / Fold change vs veh, DNAJC13 / RFU, GNAQ / Fold change vs veh, GNAQ / RFU, CDK5R1 / Fold change vs veh, CDK5R1 / RFU, ZRANB3 / Fold change vs veh, ZRANB3 / RFU, CUL4A / Fold change vs veh, CUL4A / RFU, CCNY / Fold change vs veh, CCNY / RFU, UFL1 / Fold change vs veh, UFL1 / RFU, COG3 / Fold change vs veh, COG3 / RFU, DIAPH2 / Fold change vs veh, DIAPH2 / RFU, SKA2 / Fold change vs veh, SKA2 / RFU, AFF3 / Fold change vs veh, AFF3 / RFU, LMF1 / Fold change vs veh, LMF1 / RFU, IPO11 / Fold change vs veh, IPO11 / RFU, DFFB / Fold change vs veh, DFFB / RFU, FOXP1 / Fold change vs veh, FOXP1 / RFU, CARD8 / Fold change vs veh, CARD8 / RFU, STRN3 / Fold change vs veh, STRN3 / RFU, ADK / Fold change vs veh, ADK / RFU, RASSF2 / Fold change vs veh, RASSF2 / RFU, WIPF1 / Fold change vs veh, WIPF1 / RFU, LARP1B / Fold change vs veh, LARP1B / RFU, RASA1 / Fold change vs veh, RASA1 / RFU, RB1 / Fold change vs veh, RB1 / RFU, PPFIA1 / Fold change vs veh, PPFIA1 / RFU, MAT2A / Fold change vs veh, MAT2A / RFU, CCT5 / Fold change vs veh, CCT5 / RFU, WDR92 / Fold change vs veh, WDR92 / RFU, CUX1 / Fold change vs veh, CUX1 / RFU, TTC7A / Fold change vs veh, TTC7A / RFU, TMEM135 / Fold change vs veh, TMEM135 / RFU, DEPTOR / Fold change vs veh, DEPTOR / RFU, CPM / Fold change vs veh, CPM / RFU, DNAJB6 / Fold change vs veh, DNAJB6 / RFU, CACNA2D3 / Fold change vs veh, CACNA2D3 / RFU, DTX4 / Fold change vs veh, DTX4 / RFU, TFCP2 / Fold change vs veh, TFCP2 / RFU, GMCL1 /// GMCL1P1 / Fold change vs veh, GMCL1 /// GMCL1P1 / RFU, AEBP2 / Fold change vs veh, AEBP2 / RFU, SNHG1 /// SNORD22 /// SNORD25 /// SNORD26 /// SNORD27 /// SNORD28 /// SNORD29 /// SNORD31 / Fold change vs veh, SNHG1 /// SNORD22 /// SNORD25 /// SNORD26 /// SNORD27 /// SNORD28 /// SNORD29 /// SNORD31 / Fold change (Aza/veh), C12orf56 (ProbeSet 11735607_a_at) / Fold change (ACY-1035/veh), C12orf56 (ProbeSet 11735607_a_at) / Fold change (Aza/veh), FGFR1OP (ProbeSet 11751329_s_at) / Fold change (ACY-1035/veh), FGFR1OP (ProbeSet 11751329_s_at) / Fold change (Aza/veh), VPS36 (ProbeSet 11739960_a_at) / Fold change (ACY-1035/veh), VPS36 (ProbeSet 11739960_a_at) / RFU SYPL1 (11715823_x_at) / Fold change /veh SYPL1 (11715823_x_at) / RFU IGFBP7 (11715501_s_at) / Fold change /veh IGFBP7 (11715501_s_at) / RFU REEP3 (11722064_at) / Fold change /veh REEP3 (11722064_at) / RFU IGLL1 (11728026_x_at) / Fold change /veh IGLL1 (11728026_x_at): dose or concentration left out as unconfirmed
# Conditions: ProbeSet 11763166_a_at; LIST B
smiles,measurement,value
Nc1ccc(-c2cccs2)cc1NC(=O)c1ccc2c(c1)cc(C1CC1)n2CCN1CCOCC1 [ACY-1035],"RFU, MARS",48.43 RFU
